Test results as given in US20080207522A1, “Antimicrobial Peptides” (priority 2004, published 2008).
Where “and” joins values, the source holds several entries; their conditions need not be identical. Identical values can stand only once. Like-named read-outs stand apart in the source and are kept apart here. Ends that are not written are not given here.

How the values were obtained:
[1] = system: Staphylococcus aureus cells; assay: Membrane depolarization with membrane potential-sensitive dye diSC35; assay type: cell-based; settings: 20 μg/ml of peptides, diSC35 release, FIG. 4
Method: FIG. 4 is a graphical representation showing the mechanism of action of peptides assessed by measuring the ability to depolarize Staphylococcus aureus cells using the membrane potential-sensitive dye diSC35. Either 20 μg/ml of peptides or, as a control, 29 μg/ml of gramicidin S (Gram S) were added. Lines are smoothed using a polynomial (to the 6th power) function.

[2] = system: Pseudomonas aeruginosa strain H1001; assay: Assay for the cleaved (free, soluble) peptides from cellulose support, luminescence killing assay; assay type: cell-based; design: key: 1: Peptides showing stronger killing than Bac2A at a 4 to 8-fold higher dilution; Peptides showing stronger killing compared to that of Bac2A at a 4-fold higher dilution; 3: Peptides similar to Bac2A; 4: Peptides similar to Bac2A at the highest concentration but demonstrating weaker killing at a 2-fold dilution; 5: Peptides giving very weak or no killing at a 2-fold dilution; 6: Peptides with weak killing activity at the highest concentration
How it was run: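 Cellulose-synthesized peptides (amidated C-terminus, two β-alanines) cleaved by ammonia, released from punched spots 30 min at 37 °C, then serially diluted. P. aeruginosa H1001 (constitutive fliC::luxCDABE) overnight culture diluted 1:500 in LB or 100 mM Tris pH 7.3/20 mM glucose. Killing followed as time-dependent luminescence loss at 37 °C.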

[3] = system: Pseudomonas aeruginosa strain H1001 fliC::luxCDABE; assay: Luminescence-based assay for the non-cleaved (bound) peptides on cellulose membranes; assay type: cell-based
How it was run: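 Peptides remained bound to cellulose spots, which were ethanol-washed and equilibrated in 100 mM Tris pH 7.3. Constitutively lux-expressing P. aeruginosa (OD600 0.35 culture diluted 1:25) added in 10 mM Tris-HCl pH 7.3, 20 mM glucose at 37° C. Luminescence (RLU) followed over 14 time points; peptides binned into six activity classes.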

Escherichia coli UB1005 = system: Escherichia coli UB1005
Method: (§1) Minimal inhibitory concentration (MIC) determination. The MICs of the peptides were measured using a modified broth microdilution method in Mueller Hinton (MH) medium. Wu et al., J. Biol. Chem. 274: 29-35, 1999. Briefly, the peptides were dissolved and stored in glass vials. The assay was performed in sterile 96-well polypropylene microtitre plates were used. Serial dilutions of the peptides to be assayed were performed in 0.01% acetic acid (Fisher) containing 0.2% bovine serum albumin (Boehringer Mannheim GmbH) at 10× the desired final concentration. Ten microlitres of the 10× peptides were added to each well of a 96-well polypropylene plate containing 90 μl of MH media per well. Bacteria were added to the plate from an overnight culture at 2-7×10^5 colony forming units/ml and incubated over night at 37° C. The MIC was taken as the concentration at which no growth was observed.
(§2) Strains. For the killing assay a mini-Tn5-lux mutant in Pseudomonas aeruginosa H103 was used. The strain is called H1001 and contains a fliC::luxCDABE transcriptional fusion resulting in constitutive expression of luciferase. The bacterial strains used for the antimicrobial activity assays included Escherichia coli UB1005 (F-, nalA37, metB1), a wild-type Salmonella enterica ssp. Typhimurium (S. Typhimurium), wild-type Pseudomonas aeruginosa PAO1 strain H103, Enterococcus faecalis ATCC29212, Staphylococcus aureus ATCC25923, and a clinical isolate of Staphylococcus epidermidis obtained from Dr. D. Speert (Department of Medicine, University of British Columbia). Antifungal activity was tested using a lab isolate of Candida albicans obtained from Dr. B. Dill (Department of Microbiology and Immunology, University of British Columbia).
(§3) In addition, the parent peptide Bac2A was included in these studies as a standard. The minimal inhibitory concentrations (MIC) were determined for the important medical pathogens Pseudomonas aeruginosa, Escherichia coli, Salmonella typhimurium, Staphylococcus aureus, Staphylococcus epidermidis, Enterococcus faecaelis, and the yeast Candida albicans in Mueller-Hinton media.

[4] = system: Pseudomonas aeruginosa PAO1 strain H103
Method: as §1, §2, §3

[5] = system: Salmonella enterica ssp. Typhimurium; settings: ssp. Typhimurium
Method: as §1, §2, §3

[6] = system: Staphylococcus epidermidis
Method: as §1, §2, §3

[7] = system: THP-1 macrophage-like cells; settings: at 100 μg/ml
Method: THP1 cells were cultured in RPMI 1640 medium (supplemented with 10% (v/v) FCS, 1% L-glutamine, and 1 nM sodium pyruvate) in E-toxa-clean (Sigma-Aldrich, Oakville, Ontario, Canada)-washed, endotoxin-free bottle. THP1 cells were counted and 250 μl per well of 2-4×10^4 cells/ml were transferred into a 96 well tissue cultured treated polystyrene microtiterplate (Beckton Dickinson, Franklin Lakes, USA). In addition PMA was added (1.3 nM) and the cells were incubated for three days. After three days the medium were exchanged and Pseudomonas aeruginosa LPS and the peptides were added. The incubation time was four hours and the supernatant was frozen at −20° C. The cells were stained with Tryphan Blue for 2 minutes and washed with PBS two times. The viability of the cells was determined by counting the stained cells over the unstained.
Cytotoxicity was assessed using PMA-treated, human macrophage THP-1 cell line (FIG. 5).

[8] = system: Staphylococcus aureus ATCC25923; settings: ATCC25923
Method: as §1, §2, §3

[9] = system: Enterococcus faecalis ATCC29212; settings: ATCC29212
Method: as §1, §2, §3

Candida albicans = system: Candida albicans
Method: as §1, §2, §3

Substance: RLARIVVIRVAR-NH2 [Bac2A, reference compound]
- ability to depolarize the membrane of S. aureus [1]: able to depolarize the membrane of S. aureus very quickly
- Soluble Class ([2]; Table 5, free peptides): 3
- Activity Class Soluble ([2]; free (cleaved) peptides, killing relative to Bac2A): 3
- Luminescence at the given time in minutes: 0 ([3]; cellulose-bound peptide, 0 min, listed as Bac001): 4374 RLU and 4041 RLU and 4234 RLU and 4425 RLU and 4530 RLU
- Luminescence at the given time in minutes: 20 ([3]; cellulose-bound peptide, 20 min, listed as Bac001): 6729 RLU and 6352 RLU and 6373 RLU and 6323 RLU and 6411 RLU
- Luminescence at the given time in minutes: 40 ([3]; cellulose-bound peptide, 40 min, listed as Bac001): 2607 RLU and 2249 RLU and 1840 RLU and 2721 RLU
- Luminescence at the given time in minutes: 100 ([3]; cellulose-bound peptide, 100 min, listed as Bac001): 48 RLU and 35 RLU and 50 RLU and 53 RLU and 57 RLU
- Activity Class bound ([3]; uncleaved cellulose-bound peptides): 3 (Peptides similar to Bac2A resulting in lux values of less than 500 after 240 min.)
- inhibition of light production (killing) over 10 consecutive cycles ([3]; uncleaved peptide spots re-used 10 times, 40 h exposure to bacteria per cycle): very similar inhibition of light production (killing) was observed
- MIC E. coli (Escherichia coli UB1005; Table 4a, Mueller-Hinton media, average of three measurements): 17 µg/mL
- MIC E. coli (Escherichia coli UB1005; Table 6): 17 µg/mL
- difference in MIC between high and low Mg2+ conditions ([4]; P. aeruginosa, Table 5): 4 fold
- MIC P. aerug ([4]; PAO1): 50 µg/mL
- MIC P. aeruginosa ([4]; PAO1): 50 µg/mL
- MIC P. aeruginosa Muller Hinton Media ([4]; PAO1): 54 µg/mL
- MIC P. aeruginosa With 10 μM Mg ([4]; PAO1): 18 µg/mL
- MIC P. aeruginosa With 2 mM Mg ([4]; PAO1): 73 µg/mL
- MIC S. Typhim. [5]: 34 µg/mL
- MIC S. typhimurium [5]: 34 µg/mL
- MIC S. epi. [6]: 4 µg/mL
- MIC S. epidermidis [6]: 4 µg/mL

Substance: RRAAVVLIVIRR-NH2 (C-terminus assumed) [Bac020]
- cytotoxic effect against a human macrophage cell line [7]: no cytotoxic effect
- MIC P. aeruginosa ([4]; PAO1): 7 µg/mL
- MIC P. aeruginosa Muller Hinton Media ([4]; PAO1): 7 µg/mL
- MIC P. aeruginosa With 10 μM Mg ([4]; PAO1): 2 µg/mL
- MIC P. aeruginosa With 2 mM Mg ([4]; PAO1): 8 µg/mL
- MIC against P. aeruginosa ([4]; PAO1): 7 µg/mL
- MIC S. typhimurium [5]: 18 µg/mL
- MIC S. aureus [8]: 5 µg/mL
- MIC E. faecalis [9]: 8 µg/mL
- MIC C. albicans (Candida albicans): 11 µg/mL
- MIC S. epidermidis [6]: 1.5 µg/mL
